This is an account of results in ChEMBL document CHEMBL5365504, “Psychoplastogens: A Novel Therapeutic Approach for Neurological Diseases and Disorders” (ACS Med Chem Lett, 2023).

Some results are limits rather than exact numbers.

Common to all, as to type: functional, cell-based
Settings in all cases: 72 h

Assay [1] relates to Cortical neurone. The assay can be described thus: Induction of neurite outgrowth in Wistar rat Cortical neuron cells assessed as increase in neurite number incubated for 3 days by DAPI staining based high-content screening method.
In assay [2] the test system is Cortical neurone. The assay can be described thus: Induction of neurite outgrowth in Wistar rat Cortical neuron cells assessed as increase in neurite length incubated for 3 days by DAPI staining based high-content screening method.
Assay [3] has as its system Cortical neurone. Nature of the assay: Induction of neurite outgrowth in Wistar rat Cortical neuron cells assessed as increase in number of branch points incubated for 3 days by DAPI staining based high-content screening method.

As usually defined, the EC50 is the concentration needed to bring the measured effect to its halfway point. For the compound `C[C@H](Cn1ccc2cc(OCc3ccccc3F)ccc21)N(C)C`, the EC50 in the assay with Cortical neurone [1], in the assay with Cortical neurone [2] and with Cortical neurone [3] was < 10 nM each time.

`C[C@H](Cn1ccc2cc(OCc3ccc(F)cc3)ccc21)N(C)C`: the EC50 in the assay on Cortical neurone [1], with Cortical neurone [2] and in the assay on Cortical neurone [3] was < 10 nM each time.

Consider `C[C@H](Cn1ccc2cc(OCc3ccccc3)ccc21)N1CCCC1`, for which the figures for the EC50 in the assay with Cortical neurone [1], in the assay with Cortical neurone [2] and in the assay on Cortical neurone [3] were < 10 nM, < 10 nM and 10 nM, respectively.

Regarding `C[C@@H](N)Cn1ccc2cc(OCc3cccc(F)c3)ccc21`, the EC50 is 10 nM in the assay with Cortical neurone [1], < 10 nM with Cortical neurone [2] and < 10 nM in the assay on Cortical neurone [3].

`C[C@@H](N)Cn1ccc2cc(OCc3ccc(F)cc3)ccc21`: the EC50 in the assay on Cortical neurone [1], with Cortical neurone [2] and in the assay on Cortical neurone [3] was 10 nM throughout.

On to `CCN(CC)[C@H](C)Cn1ccc2cc(OCc3ccccc3)ccc21`, for which the EC50 in the assay with Cortical neurone [1], with Cortical neurone [2] and in the assay with Cortical neurone [3] was < 10 nM throughout.

As for `C[C@@H](N)Cn1ccc2cc(OCc3ccccc3F)ccc21`, the EC50 in the assay on Cortical neurone [1] was < 10 nM; in the assay on Cortical neurone [2], 10 nM; in the assay on Cortical neurone [3] it was < 10 nM.

For `C[C@H](Cn1ccc2cc(OCc3ccccc3)ccc21)N(C)C`, the EC50 with Cortical neurone [1] was 10 nM; with Cortical neurone [2] it was < 10 nM; with Cortical neurone [3], 10 nM.

Turning to `C[C@H](Cn1ccc2nc(OCc3ccccc3)ccc21)N(C)C`, the EC50 in the assay on Cortical neurone [1], in the assay on Cortical neurone [2] and in the assay on Cortical neurone [3] was < 10 nM throughout.

As to `CN[C@H](C)Cn1ccc2cc(OCc3ccccc3)ccc21`, the EC50 with Cortical neurone [1], in the assay on Cortical neurone [2] and in the assay on Cortical neurone [3] was < 10 nM throughout.

Take `C[C@H](Cn1ccc2cc(OCc3cccc(F)c3)ccc21)N(C)C`: the EC50 in the assay on Cortical neurone [1], in the assay on Cortical neurone [2] and in the assay with Cortical neurone [3] was < 10 nM each time.
